In US20160002248A1, “GLS1 INHIBITORS FOR TREATING DISEASE” (Board of Regents, The University of Texas System, priority 2014, published 2016) one finds EC50 and IC50 data, which are given here for 19 compounds.

In experiment [1] the test system is A549 cells. Kind of experiment: Proliferation Assay (A549 cell viability, Cell Titer Fluor). The experiment is classed as cell-based. Conditions: Homo sapiens, 72 hours. Here is the method:
A549 cells were routinely maintained in RPMI 1640 media (Gibco catalog number 11875-093) supplemented with 10% dialyzed fetal bovine serum using a humidified incubator (37° C., 5% CO2 and ambient O2). In preparation for the viability assay, cells were inoculated into 384-well black CulturPlates (Perkin Elmer) at a density of 1000 cells/well in a volume of 40 uL. Following a 24-hour incubation at 37° C., 5% CO2 and ambient O2, cells were treated with compound (10 uL) in a final DMSO concentration of 0.5% (v/v). The microplates were then incubated for 72 hours (37° C., 5% CO2 and ambient O2). Cell Titer Fluor (Promega) was subsequently added (10 uL of 6× reagent) and mixed for 15 minutes at room temperature. The plates were then incubated for 30 minutes (37° C., 5% CO2 and ambient O2) and fluorescence was subsequently read on the Perkin Elmer Envision plate reader. EC50 values were calculated using a four-parameter logistic curve fit.

Experiment [2] has as its target T1, purified recombinant human GAC (GLS1) (Homo sapiens, UniProt O94925).
T1 sequence (O94925 55-598 isoform O94925-3 limits assumed): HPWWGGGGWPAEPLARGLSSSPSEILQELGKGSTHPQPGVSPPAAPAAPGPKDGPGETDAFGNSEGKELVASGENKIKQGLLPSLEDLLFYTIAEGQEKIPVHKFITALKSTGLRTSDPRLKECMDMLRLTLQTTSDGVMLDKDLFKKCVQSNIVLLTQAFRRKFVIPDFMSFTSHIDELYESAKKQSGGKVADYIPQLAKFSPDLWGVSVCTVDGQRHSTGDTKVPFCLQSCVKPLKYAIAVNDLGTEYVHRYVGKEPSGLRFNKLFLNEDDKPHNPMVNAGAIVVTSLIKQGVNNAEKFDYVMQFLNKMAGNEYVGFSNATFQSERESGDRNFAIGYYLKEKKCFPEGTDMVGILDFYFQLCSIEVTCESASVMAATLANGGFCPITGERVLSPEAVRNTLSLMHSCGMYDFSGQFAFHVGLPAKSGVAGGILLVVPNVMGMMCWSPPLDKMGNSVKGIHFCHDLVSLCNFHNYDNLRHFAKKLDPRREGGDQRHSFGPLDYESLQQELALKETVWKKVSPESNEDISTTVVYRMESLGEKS
Briefly: GLS1 Enzymatic Activity Assay (dual-coupled enzymatic assay). Type of experiment: biochemical. The procedure:
GLS1 Enzymatic Activity Assay
The inhibition of purified recombinant human GAC by varying concentrations of inhibitors is assessed via a dual-coupled enzymatic assay. The glutamate produced by the glutaminase reaction is used by glutamate oxidase to produce α-ketoglutarate, ammonia, and hydrogen peroxide, with this hydrogen peroxide subsequently being used by horseradish peroxidase to produce resorufin in the presence of Amplex UltraRed. The assay buffer consisted of 50 mM Hepes (pH 7.4), 0.25 mM EDTA and 0.1 mM Triton X-100. GAC was incubated with potassium phosphate (10 minutes at room temperature) prior to incubation with inhibitor (10 minutes at room temperature). The final reaction conditions were as follows: 2 nM GAC, 50 mM potassium phosphate, 100 mU/mL glutamate oxidase (Sigma), 1 mM glutamine (Sigma), 100 mU/mL horseradish peroxidase (Sigma), 75 μM Amplex UltraRed (Life Technologies), and 1% (v/v) DMSO. The production of resorufin was monitored on a Perkin Elmer Envision plate reader (excitation 530 nm, emission 590 nm) either in a kinetics or endpoint mode (at 20 minutes). IC50 values were calculated using a four-parameter logistic curve fit.

One may read the EC50 as the concentration needed to bring the measured effect to its halfway point. For orientation: IC50 means the concentration at which inhibition is half-maximal. `O=C(NCc1cc(OC(F)(F)F)ccc1F)c1cn(CCCCc2cc3cc(C4CNC4)[nH]c3nn2)nn1` [Example 118, 1-{4-[6-(azetidin-3-yl)-7H-pyrrolo[2,3-c]pyridazin-3-yl]butyl}-N-{[2-fluoro-5-(trifluoromethoxy)phenyl]methyl}-1H-1,2,3-triazole-4-carboxamide]: the concentration for a half-maximal effect (EC50) in experiment [1] lay in the range of 500 to 5000 nM. Further, in experiment [2], the IC50 was below 100 nM.

For `NCc1cccc(CC(=O)Nc2nnc(CCCCc3cc4cc(Cc5ccccc5)[nH]c4nn3)s2)c1` [Example 6, 2-(3-(aminomethyl)phenyl)-N-(5-(4-(6-benzyl-7H-pyrrolo[2,3-c]pyridazin-3-yl)butyl)-1,3,4-thiadiazol-2-yl)acetamide], in experiment [1], the half-maximal effective concentration (EC50) is 500 to 5000 nM. Further, in experiment [2], the IC50 is below 100 nM.

The compound `O=C(NCc1ccc(Cl)nc1)c1cn(CCCCc2cc3cc(C4CC4)[nH]c3nn2)nn1` [Example 41, N-[(6-chloropyridin-3-yl)methyl]-1-(4-{6-cyclopropyl-7H-pyrrolo[2,3-c]pyridazin-3-yl}butyl)-1H-1,2,3-triazole-4-carboxamide] returned an EC50 in experiment [1] of 500 to 5000 nM. Besides, in experiment [2], the concentration for half-maximal inhibition (IC50) was 100 to 500 nM.

`O=C(NCc1ccccn1)c1cn(CCCCc2cc3cc(Cc4ccccc4)[nH]c3nn2)nn1` [Example 34, 1-(4-{6-benzyl-7H-pyrrolo[2,3-c]pyridazin-3-yl}butyl)-N-(pyridin-2-ylmethyl)-1H-1,2,3-triazole-4-carboxamide]: in experiment [1], the EC50 lay in the range of 500 to 5000 nM. Moreover, the IC50 in experiment [2] was below 100 nM.

In experiment [1], `Cc1ccc(CNC(=O)c2cn(CCCCc3cc4cc(C5CCOCC5)[nH]c4nn3)nn2)cn1` [Example 99, N-[(6-methylpyridin-3-yl)methyl]-1-{4-[6-(oxan-4-yl)-7H-pyrrolo[2,3-c]pyridazin-3-yl]butyl}-1H-1,2,3-triazole-4-carboxamide] returned an EC50 of 500 to 5000 nM. Moreover, the IC50 in experiment [2] fell in the range of 100 to 500 nM.

As for `CC(C)(C(=O)N1CC(c2cc3cc(CCCCn4cc(C(=O)NCc5cc(OC(F)(F)F)ccc5F)nn4)nnc3[nH]2)C1)C(F)(F)F` [Example 229, N-(2-fluoro-5-(trifluoromethoxy)benzyl)-1-(4-(6-(1-(3,3,3-trifluoro-2,2-dimethylpropanoyl)azetidin-3-yl)-7H-pyrrolo[2,3-c]pyridazin-3-yl)butyl)-1H-1,2,3-triazole-4-carboxamide], the half-maximal effective concentration (EC50) in experiment [1] is below 100 nM. The IC50 in experiment [2] is below 100 nM.

In experiment [1], `O=C(NCc1cc(C(F)(F)F)ccn1)c1cn(CCCCc2cc3c(-c4ccoc4)c(C4CC4)[nH]c3nn2)nn1` [Example 184, 1-{4-[6-cyclopropyl-5-(furan-3-yl)-7H-pyrrolo[2,3-c]pyridazin-3-yl]butyl}-N-{[4-(trifluoromethyl)pyridin-2-yl]methyl}-1H-1,2,3-triazole-4-carboxamide] displayed an EC50 below 100 nM. Also, the concentration for half-maximal inhibition (IC50) in experiment [2] is below 100 nM.

As for `CC(C)(C)OC(=O)NCc1cccc(CNC(=O)c2cn(CCCCc3cc4cc(C5CC5)[nH]c4nn3)nn2)c1` [Example 93, tert-butyl N-{[3-({[1-(4-{6-cyclopropyl-7H-pyrrolo[2,3-c]pyridazin-3-yl}butyl)-1H-1,2,3-triazol-4-yl]formamido}methyl)phenyl]methyl}carbamate], in experiment [1], the EC50 was below 100 nM. Also, the IC50 in experiment [2] is below 100 nM.

`N#Cc1ccc(-c2c(C3CC3)[nH]c3nnc(CCCCn4cc(C(=O)NCc5ccccn5)nn4)cc23)cc1` [Example 124, 1-{4-[5-(4-cyanophenyl)-6-cyclopropyl-7H-pyrrolo[2,3-c]pyridazin-3-yl]butyl}-N-(pyridin-2-ylmethyl)-1H-1,2,3-triazole-4-carboxamide] had an EC50 in experiment [1] of 500 to 5000 nM. Besides, in experiment [2], the IC50 is below 100 nM.

For the compound `COc1ccnc(CNC(=O)c2cn(CCCCc3cc4cc(C5CC5)[nH]c4nn3)nn2)c1` [Example 39, 1-(4-{6-cyclopropyl-7H-pyrrolo[2,3-c]pyridazin-3-yl}butyl)-N-[(4-methoxypyridin-2-yl)methyl]-1H-1,2,3-triazole-4-carboxamide], the concentration for a half-maximal effect (EC50) in experiment [1] lay within 100 to 500 nM. Further, the IC50 in experiment [2] fell in the range of 100 to 500 nM.

The compound `O=C(NCc1cc(C(F)(F)F)ccn1)c1cn(CCCCc2cc3c(-c4ccc(F)cc4F)c(C4CC4)[nH]c3nn2)nn1` [Example 219, 1-{4-[6-cyclopropyl-5-(2,4-difluorophenyl)-7H-pyrrolo[2,3-c]pyridazin-3-yl]butyl}-N-{[4-(trifluoromethyl)pyridin-2-yl]methyl}-1H-1,2,3-triazole-4-carboxamide] displayed an EC50 in experiment [1] below 100 nM. Further, the IC50 in experiment [2] was below 100 nM.

Take `CC(C)(C)OC(=O)N1CC=C(c2c(C3CC3)[nH]c3nnc(CCCCn4cc(C(=O)NCc5cccc(OC(F)(F)F)c5)nn4)cc23)CC1` [Example 197, tert-butyl 4-(6-cyclopropyl-3-{4-[4-({[3-(trifluoromethoxy)phenyl]methyl}carbamoyl)-1H-1,2,3-triazol-1-yl]butyl}-7H-pyrrolo[2,3-c]pyridazin-5-yl)-1,2,3,6-tetrahydropyridine-1-carboxylate]: in experiment [1], the concentration giving a half-maximal response (EC50) is below 100 nM. Also, in experiment [2], the concentration for half-maximal inhibition (IC50) was below 100 nM.

In the case of `CC(C)(CO)CNC(=O)c1nnc(CCCCc2cc3cc(Cc4ccccc4)[nH]c3nn2)s1` [Example 79, 5-(4-{6-benzyl-7H-pyrrolo[2,3-c]pyridazin-3-yl}butyl)-N-(3-hydroxy-2,2-dimethylpropyl)-1,3,4-thiadiazole-2-carboxamide], in experiment [1], the concentration for a half-maximal effect (EC50) was 500 to 5000 nM. The IC50 in experiment [2] is 100 to 500 nM.

`CC(C)(C)OC(=O)N1CC(c2cc3cc(CCCCn4cc(C(=O)NCc5ccc(C(F)(F)F)cn5)nn4)nnc3[nH]2)C1` [Example 201, tert-butyl 3-(3-{4-[4-({[5-(trifluoromethyl)pyridin-2-yl]methyl)carbamoyl)-1H-1,2,3-triazol-1-yl]butyl}-7H-pyrrolo[2,3-c]pyridazin-6-yl)azetidine-1-carboxylate] displayed an EC50 in experiment [1] of 100 to 500 nM. Moreover, the IC50 in experiment [2] is below 100 nM.

The compound `O=C(NCc1cc(OC(F)(F)F)ccc1F)c1cn(CCCCc2cc3cc(C4CCNCC4)[nH]c3nn2)nn1` [Example 155, N-{[2-fluoro-5-(trifluoromethoxy)phenyl]methyl)-1-{4-[6-(piperidin-4-yl)-7H-pyrrolo[2,3-c]pyridazin-3-yl]butyl)-1H-1,2,3-triazole-4-carboxamide] had an EC50 in experiment [1] of 500 to 5000 nM. For the same compound, the 50% inhibitory concentration (IC50) in experiment [2] was 100 to 500 nM.

`O=C(NCc1ccccn1)c1cn(CCCCc2cc3c(-c4ccc(C(F)(F)F)cc4)c(C4CC4)[nH]c3nn2)nn1` [Example 123, 1-(4-{6-cyclopropyl-5-[4-(trifluoromethyl)phenyl]-7H-pyrrolo[2,3-c]pyridazin-3-yl}butyl)-N-(pyridin-2-ylmethyl)-1H-1,2,3-triazole-4-carboxamide] displayed an EC50 in experiment [1] of 100 to 500 nM. The IC50 in experiment [2] is below 100 nM.

`CC(C)(O)c1ccc(CNC(=O)c2cn(CCCCc3cc4cc(C5CC5)[nH]c4nn3)nn2)cn1` [Example 86, 1-(4-{6-cyclopropyl-7H-pyrrolo[2,3-c]pyridazin-3-yl}butyl)-N-{[6-(2-hydroxypropan-2-yl)pyridin-3-yl]methyl}-1H-1,2,3-triazole-4-carboxamide]: the EC50 in experiment [1] is 100 to 500 nM. Further, the half-maximal inhibitory concentration (IC50) in experiment [2] is below 100 nM.

With `O=C(NCc1cc(OC(F)(F)F)ccc1F)c1cn(CCCCc2cc3cc(C4CN(C(=O)C5CC5)C4)[nH]c3nn2)nn1` [Example 224, 1-{4-[6-(1-cyclopropanecarbonylazetidin-3-yl)-7H-pyrrolo[2,3-c]pyridazin-3-yl]butyl}-N-{[2-fluoro-5-(trifluoromethoxy)phenyl]methyl}-1H-1,2,3-triazole-4-carboxamide], the EC50 in experiment [1] is 100 to 500 nM. Moreover, in experiment [2], the IC50 is below 100 nM.

Take `O=C(NCc1ccccn1)c1cn(CCCCc2cc3c(Cc4ccc(Cl)nc4)c(C4CC4)[nH]c3nn2)nn1` [Example 114, 1-(4-(5-((6-chloropyridin-3-yl)methyl)-6-cyclopropyl-7H-pyrrolo[2,3-c]pyridazin-3-yl)butyl)-N-(pyridin-2-ylmethyl)-1H-1,2,3-triazole-4-carboxamide 2,2,2-trifluoroacetate]: the 50% effective concentration (EC50) in experiment [1] fell in the range of 500 to 5000 nM. Also, the IC50 in experiment [2] is below 100 nM.
